Data: patent US10238657B2, “Heterocyclic compounds for treating psoriasis” (JS INNOPHARM (SHANGHAI LTD.), priority 2015, dated 2019)
In brackets after ≈: the same amount, converted by molar mass.

Columns and labels:
mouse tail epidermis = test: Effect on mouse tail epidermis (granular layer of tail scales); format: in vivo; conditions: 100 μl once daily, 7 days, female mice, n = 10
Procedure: 70 female mice were randomly divided into several groups: (a) saline control group, saline was used in each administration; (b) blank cream group, blank cream was used in each administration; (c) calcipotriol control group, calcipotriol in cream (5% w/w) was used in each administration; (d) four testing groups, Compound No 5 in cream at 0.5%, 1%, 2%, and 4% (w/w), respectively, was used in each administration. 100 μl of corresponding treatment was applied to the same position on the tail of the mice once daily for seven successive days. The mice were sacrificed 1 hour after the last application. The treated skin parts were taken for pathological examination, and the tail scales of each mouse was assessed under a microscope. The number of scales having a granular layer in every 100 scales was counted, and the result was expressed as percentage.

[1] = test system: chick chorioallantoic membrane; test: Chick chorioallantoic membrane (CAM) angiogenesis model; format: in vivo, chicken; conditions: 100 μg/egg
Procedure: Fresh eggs were incubated for 6 successive days under 37° C. and 50% humidity. On the 6th day, live eggs were identified and taken out for window-opening. First, the chorioallantoic membrane was located with illumination. Droplets of Compound No. […] After air dry, the filter paper was placed on the chorioallantoic membrane gently without contacting big vessels. The window was sealed with a transparent adhesive tape. The eggs were incubated for 48 hours continuously. The transparent adhesive tape was then uncovered. The window was enlarged and photos were taken under a dissecting microscope (FIGS. 2 A-B). New vessels were counted based on the number of blood vessel branch points in each photo. Inhibitory rate=100−[(number of new blood vessels in treatment group at 24 h)/(number of new blood vessels in treatment group at 0 h)]/[(number of blood vessels in negative control group at 24 h)/(number of blood vessels in negative control group at 0 h)]×100%.

HaCaT cells [2] = test: Morphological examination of the effect on HaCaT cell differentiation; format: cell-based, human
Procedure: HaCaT cells were cultured in DMEM culture medium containing 10% FBS under 37° C. and 5% CO2 concentration. When reaching 80% of the culture bottle area and after digestion by 0.25% trypsin, the cells were adjusted to a concentration of 4×10^4/ml and moved to a 6-well plate respectively (containing sterilized slide). Compound solutions were added. The cells were applied to the corresponding wells, and a blank control group (saline) was set. Both the sample groups and the control group were placed in a cell incubator at 37° C. Immumohistochemical staining was conducted after incubation at 48 h.
The imagine in FIG. 1A is dark brown, indicating large amount of keratin is present. […] Compound No. 5 underwent cornification (positive result).

[3] = test system: mouse vaginal epidermal cells; test: Effect on mitosis of mouse vaginal epidermal cells; format: in vivo; conditions: 25 μl intravaginal once daily, 3 days, estradiol-treated mice, n = 6
Procedure: Except for the saline control group, sexually mature female mice were injected with estradiol subcutaneously at a dosage of 35 mg/kg for 3 successive days. On the fourth day, in-estrus mice were selected with vaginal smear. The mice were randomly divided into several groups: (a) saline control group, saline was used in each administration; (b) blank cream group, blank cream was used in each administration; (c) calcipotriol control group, calcipotriol in cream (5% w/w) was used in each administration; (d) four testing groups, Compound No 5 in cream at concentration of 0.5%, 1%, 2%, and 4% (w/w), respectively, was used in each application. 25 μl corresponding treatment was injected into the vagina of the mice once daily for 3 successive days. Colchicine (15 mg/Kg) was intraperitoneally injected 2 hours after the last dosing. The mice were sacrificed 6 hours after the injection of colchicine. The vaginal tissue was taken out for pathological examination. The number of mitosis in one hundred basal cells was counted, which was named as the mitotic index.

HaCaT cells [4] = test: In-vitro screening with MTT method, inhibition of proliferation of HaCaT cells; format: cell-based, human; conditions: Homo sapiens, HaCaT, about 48 hours incubation
Procedure: Compound No. 5 was dissolved in DMSO, and gradiently diluted with PBS to prepare solutions at concentration of 1000 μg/ml, 100 μg/ml, 10 μg/ml, 1 μg/ml, 0.1 μg/ml, and 0.01 μg/ml, respectively. Cis-platinum (CDDP) was used as positive control, and sample solutions were prepared with the same method. The sample solutions were added into a 96-well plate placed with the growth phase human immortalized keratinocyte (HaCaT) cells (Pharmacology Laboratory of Shanghai Institute of Pharmaceutical Industry), and were incubated for about 48 hours. The cell relative survival rate was determined by the MTT method, and calculated according to the following formula based on the light absorption value at […]. Cell relative survival rate=(Light absorption value of sample treatment group—background light absorption value)/(Light absorption value of DMSO treatment group—background light absorption value).

guinea pig ear epidermis = test: Propranolole hydrochloride-induced psoriasis in guinea pig model; format: in vivo; conditions: 200 μl on both ears twice daily, 7 days
Procedure: Except for those in Saline control group, guinea pigs were treated with propranolole hydrochloride cream (5% w/w, 200 μl) uniformly applied on the back of both ears twice daily for four successive weeks. After four weeks, the […] were divided into several groups, namely, blank cream group, calcipotriol group, and four testing cream groups with Compound 5 at concentration of 0.5%, 1%, 2%, and 4% (w/w)), respectively. The guinea pigs in Saline control group were treated with saline on the back of both ears; the guinea pigs in other groups were treated with corresponding cream on the back of both ears (200 μl) twice daily for 7 successive days. The guinea pigs were examined during the experiment period and sacrificed 1 hour after the last dosing.

With `Cc1cnc(Nc2ccc(F)cc2Cl)nc1-c1cc2n(c1)CCN([C@H](CO)c1cccc(Cl)c1)C2=O` [Compound 5, (S)-7-(2-((2-chloro-4-fluorophenyl)amino)-5-methylpyrimidin-4-yl)-2-(1-(3-chlorophenyl)-2-hydroxyethyl)-3,4-dihydropyrrolo[1,2-a]pyrazin-1(2H)-one] the “Scales quantity in granular layer * 100%” value (mouse tail epidermis; cream 0.5% (w/w)) was 42.40 ± 3.03 %, the “Scales quantity in granular layer * 100%” value (mouse tail epidermis; cream 1% (w/w)) was 47.00 ± 5.29 % and the “Scales quantity in granular layer * 100%” value (mouse tail epidermis; cream 2% (w/w)) was 50.80 ± 7.50 %. For the same compound, the “Scales quantity in granular layer * 100%” value (mouse tail epidermis; cream 4% (w/w)) was 58.80 ± 7.64 %, the “Number of new blood vessels 0 h” value ([1]; 0 h, n = 3) was 18.83 ± 5.60 and the “Number of new blood vessels 48 h” value ([1]; 48 h, n = 3) was 16.00 ± 5.73. For the same compound, the “Inhibitory rate (%)” value ([1]; 48 h, versus PBS group) was 125.76%, the “Differentiation of HaCaT cells (keratin, cornification)” value (HaCaT cells [2]; 100 μg/ml, 48 h, inverted microscope x200, FIG. 1A) was “induced differentiation of HaCaT cells” and the “Test Results, effect on HaCat cell differentiation” value (HaCaT cells [2]; 48 h incubation, immunohistochemical staining) was “Positive”. The “Mitotic cell number/total cell number (%)” value ([3]; cream 0.5% (w/w)) was 18.33 ± 1.86 %, the “Mitotic cell number/total cell number (%)” value ([3]; cream 1% (w/w)) was 15.00 ± 3.35 % and the “Mitotic cell number/total cell number (%)” value ([3]; cream 2% (w/w)) was 14.83 ± 2.48 %. The “Mitotic cell number/total cell number (%)” value ([3]; cream 4% (w/w)) was 14.50 ± 3.62 %, the IC50 (HaCaT cells [4]) was 544 mg/L (≈ 1030 µM) and the “Epidermal thickness (μm)” value (guinea pig ear epidermis; cream 0.5% w/w) was 190.31 ± 17.89 μm. The “Epidermal thickness (μm)” value (guinea pig ear epidermis; cream 1% w/w) was 180.74 ± 11.05 μm, the “Epidermal thickness (μm)” value (guinea pig ear epidermis; cream 2% w/w) was 156.59 ± 13.25 μm and the “Epidermal thickness (μm)” value (guinea pig ear epidermis; cream 4% w/w) was 128.96 ± 13.61 μm.
